According to paper PMC9231011, “Irreversible Antagonists for the Adenosine A2B Receptor” (Molecules, 2022):

Legend:
human A1AR = target: T1, human A1AR (Homo sapiens, UniProt P30542); test: Competitive radioligand binding vs [3H]CCPA; conditions: for Ki: apparent Ki for irreversibly binding ligands, three independent experiments, read-out: A1AR vs. Radioligand [3H]CCPA Ki ± SEM
T1 construct: purchased Perkin Elmer ES-010-M400UA
T1 sequence (P30542 1-326): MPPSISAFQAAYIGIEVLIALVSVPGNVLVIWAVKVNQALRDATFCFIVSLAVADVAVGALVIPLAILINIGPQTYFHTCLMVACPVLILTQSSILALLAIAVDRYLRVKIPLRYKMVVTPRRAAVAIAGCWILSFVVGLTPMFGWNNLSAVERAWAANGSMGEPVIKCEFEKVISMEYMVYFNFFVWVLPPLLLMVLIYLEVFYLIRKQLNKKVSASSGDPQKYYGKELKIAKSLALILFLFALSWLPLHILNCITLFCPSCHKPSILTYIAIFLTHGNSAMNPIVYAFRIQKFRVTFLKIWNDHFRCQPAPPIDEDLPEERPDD
Text: (§1) The potentially irreversible xanthine derivatives were investigated for their binding affinity at human A2BARs and for their selectivity versus the other human AR subtypes, A1, A2A, and A3, by competitive radioligand binding experiments.
(§2) The human A2AAR, the mutant human A2BAR (K269^7.32L), and the human A3AR were transiently expressed in FreeStyle^TM CHO-S cells using the transfection reagent polyethylenimine (PEI) at a ratio of 1:3 to DNA according to the manufacturer’s guideline. pcDNA3.1(+) was used as the transfection vector containing the cDNA for either the wt ARs or the K269^7.32L mutant A2BAR that was prepared by site-directed mutagenesis with the following primer: forward […], reverse […]. CHO-S cells were grown in FreeStyle^TM CHO Expression Medium supplemented with 8 mM L-glutamine before use and split to 0.5 mio. cells per mL the day before transfection. Twenty-four hours after transfection, cells were spun down by centrifugation for 15 min at 500× g. Cells were disrupted by resuspension in 5 mM tris(hydroxymethyl)aminomethane buffer (Tris, pH 7.4) containing 2 mM ethyl-ene¬diaminetetraacetic acid (EDTA) with subsequent homogenization using an Ultra-Turrax homogenizer. The cell suspension was centrifuged for 10 min at 1000× g and the obtained supernatant was pelleted by centrifugation for 60 min at 48,000× g. The supernatant was discarded and the pellet washed with 50 mM Tris (pH 7.4). After centrifugation for at least 30 min at 48,000× g, the pellet was resuspended in 50 mM Tris (pH 7.4), aliquoted and stored at −80 °C for further use. All centrifugation steps were carried out at 4 °C. Membrane preparations of the human wt A1AR and the human wt A2BAR were purchased from Perkin Elmer (Perkin-Elmer, Waltham, MA, USA) (catalogue numbers ES-010-M400UA and ES-013-M400UA).
(§3) Binding experiments were performed using 50 mM Tris buffer (pH 7.4) in a total volume of 400 µL for the A1AR, A2AAR, A3AR, and 1000 µL for the A2BAR. Initial screening was carried out in two independent experiments at 1 µM. Competition of compounds versus [^3H]CCPA (A1AR, final concentration 1 nM), [^3H]MSX-2 (A2AAR, final concentration 1 nM), [^3H]PSB-603 (A2BAR, final concentration 0.3 nM) and [^3H]PSB-11 (A3AR, final concentration 1 nM) was investigated. An amount of 7.5–25 µg of total protein per well was employed, incubated with 2 U of adenosine deaminase per mL beforehand. Non-specific binding was determined in the presence of 10 µM of 2-chloroadenosine, 10 µM of CGS 15943, 10 µM of 8-cyclopently-1,3-dipropylxanthine or 100 µM of (R)-N^6-phenylisopropyadenosine for A1-, A2A-, A2B- and A3ARs, respectively. Competition association experiments (at 25 °C) were performed in the same way but the protein was added delayed at indicated time points and the cell membranes were harvested after 1 min. Incubation was terminated by rapid filtration through GF/B glass fiber filters (Whatman) using a 48-well harvester (Brandel) after 90 (A1AR), 30 (A2AAR), 75 (A2BAR), and 45 min (A3AR) of incubation, respectively. Filters were pre-incubated with 0.3% (w/v) of PEI for 30–60 min in case of the A2AAR assay. Filters were rinsed three times with ice-cold 50 mM Tris, pH 7.4 (supplemented with 0.1% (w/v) bovine serum albumin for the A2BAR) and transferred into scintillation vials. Filters were then incubated with 2.5 mL of scintillation cocktail (ProSafe FC plus) for at least 6 h. Subsequently, radioactivity was determined using a liquid scintillation counter (Tricarb 2810TR, Perkin Elmer).

human A3AR = target: T2, human A3AR (Homo sapiens, UniProt P0DMS8); test: Competitive radioligand binding vs [3H]PSB-11; conditions: for Ki: three independent experiments, read-out: A3AR vs. Radioligand [3H]PSB-11 Ki ± SEM
T2 construct: expressed in transfected cells; host or cells: FreeStyle CHO-S cells, pcDNA3.1(+), transient
T2 sequence (P0DMS8 1-318): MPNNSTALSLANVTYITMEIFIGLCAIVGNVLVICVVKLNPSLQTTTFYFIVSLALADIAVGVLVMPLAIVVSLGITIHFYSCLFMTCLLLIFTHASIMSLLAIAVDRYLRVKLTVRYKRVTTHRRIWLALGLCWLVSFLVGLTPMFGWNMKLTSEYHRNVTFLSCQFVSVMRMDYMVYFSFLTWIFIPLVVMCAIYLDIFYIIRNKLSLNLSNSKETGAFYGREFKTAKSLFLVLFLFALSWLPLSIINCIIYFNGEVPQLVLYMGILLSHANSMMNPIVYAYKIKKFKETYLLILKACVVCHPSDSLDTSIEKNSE
Text: as §1, §2, §3

SMILES	Ki (human A1AR) [nM]	A3AR vs. Radioligand [3H]PSB-11 % inhibition at 1 µM (human A3AR) [%]	Ki (human A3AR) [nM]	melting point [°C]	A1AR vs. Radioligand [3H]CCPA % inhibition at 1 µM (human A1AR; 1 µM) [%]
CCCn1c(=O)c2[nH]c(-c3ccc(S(=O)(=O)F)cc3)nc2n(C2CC2)c1=O [6c, 4-(3-Cyclopropyl-2,6-dioxo-1-propyl-2,3,6,7-tetrahydro-1H-purin-8-yl)benzenesulfonyl fluoride]	41.5 ± 2.8	33	> 1000	> 300	–
CCCn1c(=O)c2[nH]c(-c3ccc(S(=O)(=O)F)cc3)nc2n(C)c1=O [6b, 4-(3-Methyl-2,6-dioxo-1-propyl-2,3,6,7-tetrahydro-1H-purin-8-yl)benzenesulfonyl fluoride]	293 ± 92	13	> 1000	> 300	–
CCCn1c(=O)[nH]c2nc(-c3ccc(S(=O)(=O)F)cc3)[nH]c2c1=O [6a, 4-(2,6-Dioxo-1-propyl-2,3,6,7-tetrahydro-1H-purin-8-yl)benzenesulfonyl fluoride]	406 ± 194	27	> 1000	> 300	–
CCCn1c(=O)[nH]c2nc(-c3ccc(S(=O)(=O)N4CCC(NC(=O)c5ccc(S(=O)(=O)F)cc5)CC4)cc3)[nH]c2c1=O [compound 12, 4-((1-((4-(2,6-Dioxo-1-propyl-2,3,6,7-tetrahydro-1H-purin-8-yl)phenyl)sulfonyl)piperidin-4-yl)carbamoyl)benzenesulfonyl fluoride]	> 1000	15	> 1000	–	22
